Source: ChEMBL document CHEMBL1955788, “C-C bond formation at C-2 of a quinoline ring: synthesis of 2-(1H-indol-3-yl)quinoline-3-carbonitrile derivatives as a new class of PDE4 inhibitors” (Bioorg Med Chem, 2012)
Active and inactive are the calls of the source. The calls are words filed in the database; no cut-off is given here.

target: T1, 3',5'-cyclic-AMP phosphodiesterase 4B (Homo sapiens, UniProt Q07343); assay: Inhibition of PDE4B expressed in HEK293 cells assessed as fold reduction in forskolin-stimulated cAMP production at 10 uM pretreated for 30 mins measured 4 hrs after forskolin challenge by luciferase reporter gene assay; type: functional, cell-based
T1 sequence (Q07343 whole entry): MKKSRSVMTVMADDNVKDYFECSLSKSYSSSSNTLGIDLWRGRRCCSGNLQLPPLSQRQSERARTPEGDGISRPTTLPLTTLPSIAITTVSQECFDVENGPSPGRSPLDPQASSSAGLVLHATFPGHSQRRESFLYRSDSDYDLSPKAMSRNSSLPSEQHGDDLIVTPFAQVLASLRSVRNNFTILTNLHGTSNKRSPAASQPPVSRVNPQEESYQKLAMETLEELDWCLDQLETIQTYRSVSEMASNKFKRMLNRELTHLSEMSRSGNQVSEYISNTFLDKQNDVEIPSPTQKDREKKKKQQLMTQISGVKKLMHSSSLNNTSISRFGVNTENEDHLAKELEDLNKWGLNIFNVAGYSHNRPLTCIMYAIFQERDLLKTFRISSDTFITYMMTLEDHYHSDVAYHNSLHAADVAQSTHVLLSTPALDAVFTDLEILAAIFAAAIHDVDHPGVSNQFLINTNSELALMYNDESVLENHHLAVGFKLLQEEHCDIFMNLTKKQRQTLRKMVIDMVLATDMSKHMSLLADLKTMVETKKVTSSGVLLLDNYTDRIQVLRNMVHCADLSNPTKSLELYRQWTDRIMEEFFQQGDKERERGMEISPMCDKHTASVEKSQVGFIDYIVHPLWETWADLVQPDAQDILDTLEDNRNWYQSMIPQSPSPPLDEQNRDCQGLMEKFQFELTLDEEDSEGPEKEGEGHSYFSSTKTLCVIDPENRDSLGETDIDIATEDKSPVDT

SMILES	PDE4B inhibition activity (fold reduction in cAMP)
Cc1ccc2nc(-c3c[nH]c4ccccc34)c(C#N)cc2c1	Active
Cn1cc(-c2nc3ccccc3cc2C#N)c2ccccc21	Active
COc1ccc2c(-c3nc4ccccc4cc3C#N)c[nH]c2c1	Active
N#Cc1cc2ccccc2nc1-c1c[nH]c2ccccc12	Active
N#Cc1cc2ccccc2nc1-c1c[nH]c2cc(F)c(F)cc12	Active
N#Cc1cc2ccccc2nc1-c1c[nH]c2ccc(Cl)cc12	Active
Cc1ccc2nc(-c3c[nH]c4ccc(Cl)cc34)c(C#N)cc2c1	Active
COc1ccc2c(-c3nc4ccc(C)cc4cc3C#N)c[nH]c2c1	Active
N#Cc1cc2ccccc2nc1-c1c[nH]c2ccc(Br)cc12	Active
COc1ccc2[nH]cc(-c3nc4ccccc4cc3C#N)c2c1	Active
Cc1ccc2nc(-c3c[nH]c4ccc(Br)cc34)c(C#N)cc2c1	Active
COc1ccc2[nH]cc(-c3nc4ccc(C)cc4cc3C#N)c2c1	Active

target: T1, 3',5'-cyclic-AMP phosphodiesterase 4B; assay: Inhibition of PDE4B expressed in HEK293 cells assessed as fold reduction in forskolin-stimulated cAMP production pretreated for 30 mins measured 4 hrs after forskolin challenge by luciferase reporter gene assay; type: functional, cell-based

SMILES	EC50	inhibition
COc1ccc2c(-c3nc4ccccc4cc3C#N)c[nH]c2c1	890 nM	Dose-dependent effect
